# Reference: patent US6525200B1, “Multicyclic aromatic compounds and uses thereof” (Roche Diagnostics Corporation, priority 2000, dated 2003)
# Where a name gives a salt, the structure may show the parent alone. Read-outs that look alike come from different tables or passages of the source.
# What was measured:
# [1] = Fluorescence complexation studies of receptors with urea; format: binding
# Procedure: (§1) UV-visible absorbance and fluorescence were examined. UV spectra were recorded on a Hewlett-Packard 8452A diode array UV-vis spectrophotometer, using a cell of 1 cm pathlength. Fluorescence spectra were recorded on a Photon Technology International QM-1 Steady state Fluorescence system. For UV-visible titrations stability constants (Ks) were calculated by fitting the data to the equation: Aobs=(εR[R]t+[R]t(εRG−εR)(Ks[G]t+Ks[R]t+1−sqrt((Ks[G]t+Ks[R]t+1)^2−4*[R]t Ks^2[G]t))/(2Ks[R]t))1 derived from Ks=[G][R]/[RG], [R]t=[R]+[RG], [G]t=[G]+[RG], and Aobs=(εR[R]+εRG[RG])1. The experimentally determined parameters are as follows: [R]t, the total concentration of a receptor; [G]t, the total concentration of a guest; Aobs, the observed absorbance; εR, the extinction coefficient of free receptor; 1, cell pathlength. The fitted parameters: εRG, the extinction coefficient of a receptor complex with a guest, Ks, the stability constant. For fluorescense titrations stability constants (Ks) were calculated by fitting as the data to the equation: Iobs=IR+(IRG−IR)(Ks[G]t+Ks[R]t+1−sqrt((Ks[G]t+Ks[R]t+1)^2−4*[R]tKs^2[G]t))/(2Ks[R]t) derived from Ks=[G][R]/[RG], [R]t=[R]+[RG], [G]t=[G]+[RG], and Iobs=IR+IRG. The experimentally determined parameters are as follows: [R]t, the total concentration of a receptor; [G]t, the total concentration of a guest; Iobs, the observed fluorescence intensity; IR, the fluorescence intensity of free receptor at a given concentration. The fitted parameters: IRG, the fluorescence intensity of a receptor complex with aguest at a given concentration, Ks, the stability constant. The calculations were performed using software Sigma Plot 1.02 (Jandel Scientific) with tolerance value 0.000100. The goodness of fit was evaluated by means of the Student's Paired t-Test (P-value>0.05).
# A fluorescence titration study was performed as follows: a stock solution of the receptor (compound IB) was prepared with distilled water. Using the equipment described in Example 6, an excitation wavelength of 384 nm was used to obtain the spectrum for the uncomplexed receptor. Thereafter, four (4) aliquots of a urea stock solution were added with fluorescence being measured after each addition. A composite spectrum is show in FIG. 8.
# Fluorescence was measured for the stock receptor solution using an excitation wavelength of 384 nm with a peak emission being observed at 450 nm. The stock urea solution was then added and fluorescence was measured again. A composite spectrum is shown in FIG. 10, with curve (a) representing the receptor without urea and curve (b) representing the complexation of the receptor with urea.
# Fluorescence was also measured using a 25 μM stock solution of the receptor in distilled water. […] A urea solution was prepared and added to the receptor solution to measure quenching due to complexation.
# Fluorescence was measured for a 20 μM stock solution of compound ID in a 98:2 (v/v) DMSO:water solvent system. An excitation wavelength of 407 nm was used with a peak emission being observed at 450 nm. A 0.17 M urea solution was then added and fluorescence measured again. A composite spectrum is shown in FIG. 11, with curve (a) representing the receptor (i.e., compound ID) without urea and curve (b) representing the complexation of the receptor with urea. […]
# Fluorescence was measured for a 20 μM stock solution of compound IE in a 1:1 (v/v) DMSO:CHCl3 solvent system. […] Twenty equivalents of urea were then added and fluorescence measured again. […]
# [2] = UV-visible titration of receptor with N-methylguanidine hydrochloride in distilled water; format: binding
# Procedure: as §1
# UV-visible titrations was performed by first preparaing a 30 μM receptor 5 (compound IA) stock solution in distilled water. […]
# The following parameters were found from absorbance data measured at 410 nm: εR=6.50×10^3 cm^−1 M^−1, εRG=2.43×10^4 cm^−1 M^−1, Ks=1.0×10^5 M^−1.
# [3] = Fluorescence quenching of receptor on addition of N-methylguanidinium; format: binding; conditions: 30 μM receptor in distilled water, excitation 388 nm, 2 equivalents of guest
# Procedure: as §1, with “The fitted parameters: εRG, the extinction coefficient of a receptor complex with a guest, Ks, the stability constant.” left out, “The fitted parameters: IRG, the fluorescence intensity of a receptor complex with aguest at a given concentration, Ks, the stability constant. The calculations were performed using software Sigma Plot 1.02 (Jandel Scientific) with tolerance value 0.000100. The goodness of fit was evaluated by means of the Student's Paired t-Test (P-value>0.05).” left out
# [4] = water or aqueous medium; cited from earlier work
# [5] = in water; read-out: dissociation constant of the complex with methylguanidinium ion; cited from earlier work
# [6] = in water, fluorescence quenching, read-out: Kd with urea
smiles,measurement,setting,value
"Nc1cccc(-c2ccc3c(n2)-c2nc4nc5c(cc4cc2CC3)CCc2ccc(C(=O)O)nc2-5)n1 [Compound IC, 5,6,9,10-Tetrahydro-13-(2-aminopyridin-6-yl)[1,10]phenanthrolino[2,3-b][1,10]phenanthroline-2-carboxylic acid]",Kd,"[1]; in DMSO, 30 μM receptor, excitation 384 nm, read-out: Kd for urea",33 mM
same,Kd,[1]; [6],13 mM
"COc1cc(N(C)C)c(OC)cc1CCNC(=O)c1ccc2c(n1)-c1nc3nc4c(cc3cc1CC2)CCc1ccc(C(=O)NCCNc2ccc3c5c(cccc25)C(=O)N(Cc2ccc(C(=O)OC(C)(C)C)cc2)C3=O)nc1-4 [Compound IE, 5,6,9,10-Tetrahydro[1,10]phenanthrolino[2,3-b][1,10]phenanthroline-2-(N-(4-aminoethyl-N′-(4-tert-butoxycarbonyltoluidyl)naphthyridine))carboxamide-13-(N-(2,5-dimethoxy-4-dimethylaminophenethyl))carboxamide]",Kd,"[1]; 1:1 (v/v) DMSO:CHCl3, 20 μM receptor, excitation 460 nm, read-out: Kd for urea",16 mM
"O=C(O)c1ccc2c(n1)-c1nc3nc4c(cc3cc1CC2)CCc1cc2c(nc1-4)-c1nc3ncccc3cc1CC2 [Compound IA, 5,6,9,10,12,13-Hexahydro[1,10]phenanthrolino[2,3-b]pyrido[2′3′:2,3]quino[7,8-j][1,10]phenanthroline-2-carboxylic acid, potassium salt]",stability constant Ks of complex with N-methylguanidinium,"[2]; 30 μM receptor in distilled water, absorbance at 410 nm",100000 M⁻¹
same,binds N-methylguanidinium more strongly than the arginine cork,[2]; in water,430 times
same,Kd,"[2]; in water, correlated from Ks, read-out: Kd of complex with N-methylguanidinium",0.01 mM
same,"emission band at 410 nm, remaining share of original fluorescence intensity",[3],approximately 24%
"O=C(O)c1ccc2c(n1)-c1nc3nc4c(cc3cc1CC2)CCc1ccc(-c2nc(O)cc(O)n2)nc1-4 [Compound ID, 5,6,9,10-Tetrahydro-13-(4,6-dihydroxypyrimidin-2-yl) [1,10]phenanthrolino [2,3-b][1,10]phenanthroline-2-carboxylic acid, potassium salt]",Kd,"[1]; 98:2 (v/v) DMSO:water, 20 μM receptor, excitation 407 nm, read-out: Kd for urea",50 mM
CCCCc1c2c(nc3c1CCc1cc4cc5c(nc4nc1-3)-c1nc3c(c(CCCC)c1CC5)CCc1cc4cccnc4nc1-3)-c1nc3ncccc3cc1CC2 [Compound 4],solubility in water / aqueous medium,[4],not soluble in water
"Nc1ccc2cc3c(nc2n1)-c1nc2c(cc1CC3)CCc1cc3cc4c(nc3nc1-2)-c1nc(C(=O)O)ccc1CC4 [Compound IB, 17-Amino-5,6,9,10,12,13-hexahydro[1,10]phenanthrolino[2,3-b]pyrido[2′3′:2,3]quino[7,8-j][1,10]phenanthroline-2-carboxylic acid, potassium salt]",Kd,[1]; [6],< 17 mM
O=C(O)c1ccc2c(n1)-c1nc3nc4c(cc3cc1CC2)CCc1ccc(C(=O)O)nc1-4 [Compound 3],solubility in water / aqueous medium,[4],soluble in water
same,Kd,[5],4.3 mM
